# According to patent US4415570A, “Nicotinic acid derivatives” (Nippon Shinyaku Co. Ltd., priority 1981, dated 1983):
# Tests used:
# [1] = tested on: reversed passive Arthus reaction; test: Reversed passive Arthus reaction (RPAR) inhibition, leakage area of Evans Blue; type: in vivo, rats; details: for RPAR inhibitory action: oral administration
# Protocol: Activity of RPAR inhibition of the compounds of the present invention was measured in the following manner. Anti-BSA serum was obtained from rabbits that were previously administered bovine serum albumin ("BSA"). The anti-BSA serum was applied to four parts of the skin of the abdomens of rats previously treated with BSA and Evans Blue. The anti-BSA serum and the BSA and Evans Blue were administered to the rats subcutaneously. […] The local inflammation was determined by examining each of the four inflamed parts and measuring for each part the area from which there was leakage of Evans Blue. The data from the test animals were compared to the control animals, and a reduction in the leakage area of 20% or more was defined as a positive effect. The RPAR inhibition activity is reported as the number of positive effects per animal, divided by 4. Thus, two positive effects would be an RPAR of 2/4.
# carrageenin edema = carrageenin edema inhibiting activity; type: in vivo; details: intraperitoneal injection, 50 mg/kg
# Description: The RPAR inhibition activity of the compounds (I) of the present invention is not related to its anti-inflammatory activity.
# [2] = Table I, 200 mg/kg body weight orally, number of positive effects (leakage area reduced 20% or more) out of 4 parts
# [3] = Table 2, 500 mg/kg p.o., number of positive effects out of 4 parts
# [4] = Table 2, 200 mg/kg p.o., number of positive effects out of 4 parts
structure (smiles),measurement,setting,value
O=C(Nc1nc(-c2ccc(Cl)cc2)nc(N2CCCC2)n1)c1cccnc1 [Compound 1],RPAR Inhibition,[1]; [2],2/4
O=C(Nc1nc(-c2ccc(Cl)cc2)nc(N2CCOCC2)n1)c1cccnc1 [Compound 2],RPAR Inhibition,[1]; [2],2/4
O=C(Nc1nc(-c2ccccc2Cl)nc(N2CCCCC2)n1)c1cccnc1 [Compound 3],RPAR Inhibition,[1]; [2],2/4
O=C(Nc1nc(-c2ccccc2Cl)nc(N2CCOCC2)n1)c1cccnc1 [Compound 4],RPAR Inhibition,[1]; [2],2/4
O=C(Nc1nc(-c2ccccc2Cl)nc(N2CCCC2)n1)c1cccnc1 [Compound 5],RPAR Inhibition,[1]; [2],2/4
CCCCNc1nc(NC(=O)c2cccnc2)nc(-c2ccc(Cl)c(Cl)c2)n1 [Compound 6],RPAR Inhibition,[1]; [2],2/4
CCN(CC)c1nc(NC(=O)c2cccnc2)nc(-c2ccc(Cl)c(Cl)c2)n1 [Compound 7],RPAR Inhibition,[1]; [2],3/4
O=C(Nc1nc(-c2cc(Cl)ccc2Cl)nc(N2CCCCC2)n1)c1cccnc1 [Compound 8],RPAR Inhibition,[1]; [2],3/4
O=C(Nc1nc(-c2cc(Cl)ccc2Cl)nc(N2CCOCC2)n1)c1cccnc1 [Compound 9],RPAR inhibition activity (in words),[1],strongly inhibits RPAR
same,RPAR Inhibition,[1]; [2],4/4
same,carrageenin edema inhibiting activity,carrageenin edema,21%
CN(C)c1nc(NC(=O)c2cccnc2)nc(-c2ccc(F)cc2)n1 [Compound 10],RPAR Inhibition,[1]; [2],3/4
Nc1nc(N)nc(-c2cc(Cl)ccc2Cl)n1 [Compound 11],RPAR inhibition activity (in words),[1],do not exhibit RPAR inhibition activity at all
same,RPAR Inhibition,[1]; [3],0/4
Nc1nc(N)nc(-c2ccc(Cl)cc2)n1 [Compound 12],RPAR inhibition activity (in words),[1],do not exhibit RPAR inhibition activity at all
same,RPAR Inhibition,[1]; [3],0/4
Nc1nc(NC(=O)c2cccnc2)nc(-c2ccccc2)n1 [Compound 13],RPAR inhibition activity (in words),[1],little or no RPAR inhibition activity
same,RPAR Inhibition,[1]; [4],0/4
same,RPAR Inhibition,[1]; [3],2/4
Nc1nc(NC(=O)c2cccnc2)nc(-c2c(Cl)cccc2Cl)n1 [Compound 14],RPAR Inhibition,[1]; [4],0/4
Nc1nc(NC(=O)c2cccnc2)nc(-c2ccc(Cl)cc2)n1 [Compound 15],RPAR inhibition activity (in words),[1],no RPAR inhibition activity
same,RPAR Inhibition,[1]; [4],0/4
same,carrageenin edema inhibiting activity,carrageenin edema,56.8%
Nc1nc(NC(=O)c2cccnc2)nc(-c2cccc(Cl)c2)n1 [Compound 16],RPAR Inhibition,[1]; [4],0/4
Nc1nc(NC(=O)c2cccnc2)nc(-c2ccccc2I)n1 [Compound 17],RPAR Inhibition,[1]; [4],1/4
CC(=O)Oc1ccccc1C(=O)O [aspirin],RPAR inhibitory action,[1]; 200 mg/kg,no RPAR inhibitory action
COc1ccc2c(c1)c(CC(=O)O)c(C)n2C(=O)c1ccc(Cl)cc1 [indomethacin],RPAR inhibitory action,[1]; 10 mg/kg,no RPAR inhibitory action
CCCCC1C(=O)N(c2ccccc2)N(c2ccccc2)C1=O [phenylbutazone],RPAR inhibitory action,[1]; 100 mg/kg,no RPAR inhibitory action
